From patent publication US11653649B2, “Antimicrobial composition including a dihydroxamic acid and methods of inhibiting microbial growth utilizing the same” (Kimberly-Clark Worldwide, Inc., priority 2017, dated 2023)
Marks after values point to notes of the source that are not given here.

How the values were obtained:
[1] = system: Pseudomonas aeruginosa (ATCC 9027); experiment: Anti-bacterial MIC, microbroth dilution; assay type: cell-based; details: for MIC v. P. aeruginosa: Tables 4 and 5, rounded values, wt %; for MIC (%) P. aeruginosa: pH 4.5, CAMHB, 37° C., 24 hours
Protocol: (§1) Method: Microbroth Dilution Method (96-well format).
(§2) Solvent: Sterile MilliQ water and 0.1 M Citrate Buffer pH 4.5
(§3) Media used: • Bacterial: Cation-Adjusted Mueller-Hinton Broth (CAMHB) • Fungi: RPMI-1640
(§4) Bacteria • Incubation Temperature: 37° C. • Incubation Time: 24 hours • Inoculum Size: 5×10(5) cfu/mL • Strains: • Staphylococcus aureus (ATCC 6538) • Escherichia coli (ATCC 8739) • Pseudomonas aeruginosa (ATCC 9027) • Burkholderia cepacia (ATCC 25416)
(§5) Fungi: • Incubation Temperature: • 25° C. (Candida albicans) • 35° C. […] . All solubilized and pH 4.5-adjusted test compounds were filter-sterilized before subjecting to MIC study. Positive control was also dissolved in the similar way. […] All the strains were inoculated on their respective agar medium and incubated under conditions/durations detailed above. • Preparation of inoculum: • The bacterial colony suspension in 0.85% saline was adjusted to 1 McFarland's standard using Densimat which was further diluted to 1:100 in CAMHB. The fungal suspension for inoculation was prepared in 0.85% saline from 6 days old culture (for mold, A. brasiliensis) and from 2 days old culture (for yeast, C. albicans) from Sabouraud Dextrose agar medium. Culture was scrapped/scooped from the plate, suspended in saline and the spores/cells counted using haemocytometer to provide a final inoculum of 5×10^4 cfu/mL. • 96-well Plate Preparation: • Minimum inhibitory concentration (MIC) is performed to determine potency of test compounds along with standard antibiotics against bacterial strains. Micro titer plates were prepared as per the CLSI recommendations. One hundred and seventy five microliters of Cation-adjusted Muller Hinton Broth (CAMHB) was added to the first column of a 96 well flat bottom plate, which is the media control. Second column is for the stocks of the test compounds and reference standards from which dilutions are made. Then 175 μL of CAMHB was added to the 5th, 8th and 11th columns, 75 μL of CAMHB to the 4th, 7th and 10th columns and 50 μL of CAMHB to the 3rd, 6th and 9th columns and the last column was the organism control. Antimicrobial Efficacy Testing

[2] = system: Escherichia coli (ATCC 8739); experiment: Anti-bacterial MIC, microbroth dilution; assay type: cell-based; details: pH 4.5, CAMHB, 37° C., 24 hours
Protocol: as §1, §2, §3, §4, §5

[3] = system: Burkholderia cepacia (ATCC 25416); experiment: Anti-bacterial MIC, microbroth dilution; assay type: cell-based; details: pH 4.5, CAMHB, 37° C., 24 hours
Protocol: as §1, §2, §3, §4, §5

[4] = system: Staphylococcus aureus (ATCC 6538); experiment: Anti-bacterial MIC, microbroth dilution; assay type: cell-based; details: pH 4.5, CAMHB, 37° C., 24 hours
Protocol: as §1, §2, §3, §4, §5

[5] = Determination of Aqueous Solubility (pH-4.5) by Miniaturized Shake Flask Method; assay type: physicochemical; details: ultrapure water pH 4.5, 22° C., highest test concentration 1% w/v
Protocol: Determination of Aqueous Solubility (pH-4.5) by Miniaturized Shake Flask Method
Test Media: Ultrapure water (pH-4.5) (18MΩDl water)
Test Concentration: 10 mg/ml
Incubation Details: 22° C. +/−3° C.
Method of Analysis: Photometric analysis using Microplate reader
Data Output: Aqueous Solubility
Required volume of ultrapure water (˜75 mL) was taken and pH was adjusted to 4.5 using citrate buffer (pH-4.5). This water was used as a test media for determining the solubility of test/reference items.
Solubility Testing by Shake Flask Method
The solubility of test items were determined at a highest test concentration of 1% w/v (10 mg/mL).
40 mg of test items were weighed into tubes.
4 mL of Ultrapure water was added to all tubes to get a concentration of 10 mg/mL (1% w/v).
The initial pH of the solubility samples were recorded. […] Then, the solution were observed visually for any precipitation.
The visually soluble samples were centrifuged at 10000 rpm for 10 minutes at room temperature (22° C.±3° C.).
An aliquot of the supernatant were diluted with equal volume of methanol. The samples were further diluted in methanol: water (50:50) to obtain dilution of 1:2, 1:4, 1:16, 1:32 etc.
The samples were then transferred to UV plate and scanned at Amax of that particular test/reference item.

[6] = system: Candida albicans (ATCC 10231); experiment: Anti-fungal MIC, microbroth dilution; assay type: cell-based; details: pH 4.5, RPMI-1640, 25° C., 48 hours
Protocol: as §1, §2, §3, §5

[7] = system: Aspergillus brasiliensis (ATCC 16404); experiment: Anti-fungal MIC, microbroth dilution; assay type: cell-based; details: pH 4.5, RPMI-1640, 35° C., 48 hours
Protocol: as §1, §2, §3, §5

[8] = system: various bacteria and fungi; experiment: Antimicrobial Efficacy Testing (USP 51), overall outcome; assay type: cell-based; details: USP 51, 28 days
Description: The Antimicrobial Efficacy Testing discussed herein was completed pursuant to the standard antimicrobial effectiveness test from Chapter 51 of the United States Pharmacopeia (USP 51), in which an antimicrobial composition can be tested against at least five microorganisms, including bacteria and fungi. In the Antimicrobial Efficacy Testing conducted herein, the following bacteria were utilized: Staphylococcus aureus, Escherichia coli, Pseudomonas aeruginosa, and Burkholderia cepacia; and the following fungi were utilized: Candida albicans, and Aspergillus brasiliensis. While one of ordinary skill in the art could replicate such Antimicrobial Efficacy Testing by completing USP 51 protocol, a brief summary was that each antimicrobial composition sample was tested against each microorganism being held at room temperature over the course of 28 days, with each sample being evaluated at specific intervals at the beginning of the Testing (initial), day 7, day 14, and day 28. The test sample colonies were counted at each interval to determine the number of surviving microorganisms. The log reduction of each microorganism at each interval was reported. The effectiveness of the antimicrobial agent sample was based on the USP 51 passing criteria.

| Compound | MIC v. P. aeruginosa [1] | MIC (%) P. aeruginosa [1] | MIC (%) E. coli [2] | MIC (%) B. cepacia [3] | MIC (%) S. Aureus [4] | Solubility (wt %) [5] [wt %] | MIC (%) C. albicans [6] | MIC (%) A. brasiliensis [7] | Antimicrobial Efficacy Testing outcome (inhibiting growth of various bacteria and fungi) [8] |
| --- | --- | --- | --- | --- | --- | --- | --- | --- | --- |
| O=[N+]([O-])C(Br)(CO)CO [2-Bromo-2-Nitropropane-1,3-Diol, reference compound] | 0.00% |  |  |  |  |  |  |  |  |
| O=C(O)c1ccccc1 [Benzoic Acid, reference compound] | 0.07% |  |  |  |  |  |  |  |  |
| OCc1ccccc1 [Benzyl Alcohol, reference compound] | 0.35% |  |  |  |  |  |  |  |  |
| CCCCCCCC(=O)NO [Caprylhydroxamic Acid, reference compound] | 0.07% | 0.0679% | 0.017% | 0.017% | 0.034% | 0.1358 | 0.008% | 0.004% |  |
| CCCCCC(=O)NO [Compound No. 1, Hexylhydroxamic Acid] | 0.06% | 0.0625% | 0.125% | 0.0625% | 0.25% | >1.00 | 0.031% | 0.008% |  |
| CCCCCCCCCC(=O)NO [Compound No. 3, Decylhydroxamic Acid] | >0.00125%* | >0.00125* % | >0.00125* % | >0.00125* % | >0.00125* % | 0.0025 | >0.00125* % | >0.00125* % |  |
| O=C(NO)c1ccccc1 [Compound No. 5, Benzhydroxamic Acid] | 0.06% | 0.0625% | 0.25% | 0.125% | 0.125% | >1.00 | 0.031% | 0.016% |  |
| O=C(NO)c1ccc(O)cc1 [Compound No. 6, p-hydroxy Benzhydroxamic Acid] | 0.06% | 0.0625% | 0.0625% | 0.031% | 0.125% | >1.00 | >1.00* % | 0.25% |  |
| O=C(CC(O)C(=O)NO)NO (stereo not shown) [Compound No. 7, N, N′, 2-trihydroxy butane diamide] | 0.03% | 0.031% | 0.016% | 0.016% | 0.008% | >1.00 | 0.008% | 0.008% |  |
| O=C(CCC(=O)NO)NO [Compound No. 8, N, N′-dihydroxysuccinamide] | 0.06% | 0.0625% | 0.031% | 0.031% | 0.016% | >1.00 | 0.25% | 0.031% |  |
| O=C(CCCCCCC(=O)NO)NO [Compound No. 9, N, N′-dihydroxyoctanediamide] | >0.12%* | >0.124* % | >0.124* % | >0.124* % | >0.124* % | 0.248 | >0.124* % | >0.124* % | did not pass |
| CC1(C)C(=O)N(CO)C(=O)N1CO [DMDM Hydantoin, reference compound] | 0.02% |  |  |  |  |  |  |  |  |
| CC(=O)C1C(=O)C=C(C)OC1=O (stereo not shown) [Dehydroacetic Acid, reference compound] | 2.00% |  |  |  |  |  |  |  |  |
| O=C(NCO)N(CO)C1(CO)C(=O)NC(=O)N1CO (stereo not shown) [Diazolidinyl Urea, reference compound] | 0.10% |  |  |  |  |  |  |  |  |
| Cn1sccc1=O [Methylisothiazolinone, reference compound] | 0.00% |  |  |  |  |  |  |  |  |
| COC(=O)c1ccc(O)cc1 [Methylparaben, reference compound] | 0.20% |  |  |  |  |  |  |  |  |
| OCCc1ccccc1 [Phenethyl Alcohol, reference compound] | 0.41% |  |  |  |  |  |  |  |  |
| CCCCCCCCCCCC(=O)NO [compound 2, Laurylhydroxamic Acid] |  | >0.0011* % | >0.0011* % | >0.0011* % | >0.0011* % | 0.0022 | >0.0011* % | >0.0011* % |  |
| Propylhydroxamic Acid [reference compound] | 0.50% |  |  |  |  |  |  |  |  |
